Experimental data: patent US20060183794A1, “Drug composition containing nf-kb inhibitor” (priority 2002, published 2006)

What was measured:
[1] = tested on: MM cell lines, KMM1, RPMI8226, and U266; assay: Apoptosis of multiple myeloma cell lines (Annexin-V, Hoechst staining); assay type: cell-based
Method: Further, to investigate apoptosis induction of MM cell lines by DHMEQ, the MM cell lines, KMM1, RPMI8226, and U266, were incubated for 0, 24, and 48 hours at a concentration of 10 μg/ml and the apoptosis was examined by Annexin-V staining.
Further, to confirm apoptosis induction in MM cell lines by DHMEQ, the MM cell lines, KMM1, RPMI8226, and U266, were incubated for 72 hours at a concentration of 10 μg/ml and the apoptosis was examined by observing nuclear condensation or fragmentation with a fluorescence microscope, using Hoechst staining.

K562 = assay: Hoechst staining apoptosis assay, control cell line K562; assay type: cell-based; settings: 10 μg/ml, 72 hours
Method: DHM2EQ was added to the ATL cell lines (MT-1 and TL-Om1) and a control cell line (K562) at a final concentration of 10 μg/ml, followed by incubation for 72 hours. Subsequently, apoptosis was examined by observing nuclear […] or fragmentation on Hoechst staining with a fluorescence microscope. Cells to which the solvent DMSO had been added in equal volume were also examined in the same manner.

NF-κB [2] = molecular target: T1, NF-κB (Homo sapiens, UniProt P19838+Q04206); assay: Gel shift assay (EMSA) of NF-κB activation in stimulated HUVECs; assay type: cell-based; set-up: endogenous in cells; host or cells: MCF-7 cells treated with TNF-α; settings: DHMEQ 3 μg/ml, 2 h pretreatment
Text: HUVECs were pretreated with DHMEQ as follows. […] Nuclear extract was thus obtained.
Target sequence in this assay (Q04206 whole entry): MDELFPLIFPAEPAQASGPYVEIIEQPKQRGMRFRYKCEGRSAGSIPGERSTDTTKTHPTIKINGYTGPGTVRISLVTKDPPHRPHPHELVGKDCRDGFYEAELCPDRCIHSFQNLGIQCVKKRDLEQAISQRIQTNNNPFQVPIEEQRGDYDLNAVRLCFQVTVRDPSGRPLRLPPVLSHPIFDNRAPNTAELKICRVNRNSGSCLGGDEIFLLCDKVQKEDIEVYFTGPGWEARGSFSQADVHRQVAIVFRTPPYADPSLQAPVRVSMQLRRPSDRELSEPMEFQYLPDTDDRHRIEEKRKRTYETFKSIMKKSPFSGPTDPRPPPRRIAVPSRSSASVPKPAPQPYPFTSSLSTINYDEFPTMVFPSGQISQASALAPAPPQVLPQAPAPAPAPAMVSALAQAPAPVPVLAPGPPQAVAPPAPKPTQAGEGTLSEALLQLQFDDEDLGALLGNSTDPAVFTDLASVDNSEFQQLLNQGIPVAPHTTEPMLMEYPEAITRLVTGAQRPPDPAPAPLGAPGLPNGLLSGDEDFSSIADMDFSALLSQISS
Target sequence in this assay (P19838 1-433 limits assumed): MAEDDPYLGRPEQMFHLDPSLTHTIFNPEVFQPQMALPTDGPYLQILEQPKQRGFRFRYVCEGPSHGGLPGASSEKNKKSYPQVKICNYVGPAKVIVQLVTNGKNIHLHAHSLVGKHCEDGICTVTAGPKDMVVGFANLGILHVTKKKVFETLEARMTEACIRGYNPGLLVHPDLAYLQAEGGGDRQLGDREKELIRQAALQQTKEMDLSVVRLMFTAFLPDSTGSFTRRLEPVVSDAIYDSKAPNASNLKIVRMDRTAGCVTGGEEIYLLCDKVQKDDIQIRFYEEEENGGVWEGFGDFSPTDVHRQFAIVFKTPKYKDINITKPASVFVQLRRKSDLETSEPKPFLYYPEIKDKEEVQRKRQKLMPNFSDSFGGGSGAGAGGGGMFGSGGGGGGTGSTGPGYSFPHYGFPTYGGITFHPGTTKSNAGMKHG

NF-κB [3] = molecular target: T1, NF-κB; assay: 6 kB-Luc reporter assay of NF-κB transcription in multiple myeloma cell lines; assay type: cell-based; set-up: endogenous in cells; host or cells: MM cell lines KMM1, RPMI8226, U266; settings: 5 μg/ml, 12-hour treatment; compared with non-treated cells
Method: Next, the inhibitory effect on activation of NF-κB was investigated using the reporter assay. First, 6 kB-Luc plasmid was introduced by transfection into the MM cell lines, KMM1, RPMI8226, and U266 (transfected on a scale of a 2×10^5 cells/transfection using DMRIE-C (Invitrogen)) After 12 hours, 12-hour treatment of cells with 5 μg/ml DHM2EQ was started and the suppressive effect of DHMEQ on the transcription by NF-κB was examined. […] The suppressive effect of DHMEQ on transcription by NF-κB was therefore indicated.
Target sequence in this assay (Q04206 whole entry): as the sequence (Q04206 whole entry) above
Target sequence in this assay (P19838 1-433 limits assumed): as the sequence (P19838 1-433 limits assumed) above

NF-κB [4] = molecular target: T1, NF-κB; assay: Gel shift assay of NF-κB activation by antitumor agents in KMH2 cells; assay type: cell-based; set-up: endogenous in cells; host or cells: HL cell lines KMH2, L428, L540, HDLM2 (A30: KMH2 treated with antitumor agents); settings: camptothecin or daunomycin with concurrent DHMEQ
Target sequence in this assay (P19838 1-433 limits assumed): as above
Target sequence in this assay (Q04206 whole entry): as the sequence (Q04206 whole entry) above
Method: The ATL cell lines (MT-1 and TL-Om1) and the control cell lines (K562 and Jurkat+TNF), 2×10^6 cells each, were treated with 10 μg/ml DHM2EQ for 12 hours, and nuclear extract was prepared from each cell line. Likewise, nuclear extract was prepared also from the cell lines not treated with DHM2EQ.
The equivalent of 2 μg of nuclear extract protein was mixed with NF-κB probes (the equivalent of 10,000 cpm) in a volume of 20 μl and reacted at room temperature for 30 min. The solution after the reaction was subjected to 7.5% polyacrylamide gel electrophoresis. The gel was then dried and exposed to an X-ray film.

p65 subunit of NF-κB = molecular target: T2, p65 subunit of NF-κB (Homo sapiens, UniProt Q04206); assay: Confocal microscopy of p65 distribution in ATL cell lines; assay type: cell-based; settings: MT-1 and TL-Om1; 10 μg/ml DHM2EQ, 24 hours
T2 construct: endogenous in cells; host or cells: ATL cell lines MT-1 and TL-Om1
T2 sequence (Q04206 whole entry): as above
Method: It is thought that DHM2EQ inhibits nuclear translocation of the p65 subunit of NF-κB. The ATL cell lines (MT-1 and TL-Om1) were treated with 10 μg/ml DHM2EQ for 24 hours and distribution of p65 was examined with a confocal microscope, using fluorescence-labeled anti-p65 antibody. The cell lines not treated with DHM2EQ were also examined in the same manner. In the figure, “−” and “+” indicate the results of DHM2EQ untreatment and DHM2EQ treatment, respectively.

[5] = tested on: adhesion of leukocytes and HL-60 cells to HUVECs; assay: Adhesion of leukocytes and HL-60 cells to TNF-α-stimulated HUVECs; assay type: cell-based, human; settings: DHMEQ 3 μg/ml; TNF-α stimulation 3, 6, 9 hours
Method: HUVECs were plated 24 well plates and confluently cultured. The culture medium was composed of 9.8 g/l medium 199 (provided from Nissui), 1.8 g/l NaHCO3 (Wako), 10 ml/l 1M Hepes buffer (Sigma), 30 mg/l ECGS (Becton Dickinson), 6 ml/l heparin sodium injection (Takeda Pharmaceutical), and 10% heat-inactivated FBS (JRH). Subsequently, the following experiments were conducted. […] In this experiment, mononuclear cells isolated by the specific gravity centrifugation method were used as leukocytes.
After stimulation with TNF-α, the wells were washed twice with HBSS+ (provided from Nissui) and the culture medium was changed to 500 μl of a fresh medium composed of 9.8 g/l medium 199 (provided from Nissui), 1.8 g/l NaHCO3 (Wako), 10 ml/l 1M Hepes buffer (Sigma), 30 mg/l ECGS (Becton Dickinson), 6 ml/l heparin sodium injection (Takeda Pharmaceutical), and 10% heat-inactivated FBS (JRH). Leukocytes and HL-60 cells were placed in wells at 2×10^5 cells/well and 7×10^4 cells/well, respectively. […] That state was photographed and the number of cells adhered to HUVECs was counted.

## O=C(NC1=CC(=O)C2OC2C1O)c1ccccc1O (centres unmarked) [DHMEQ, 5,6-epoxy-4-hydroxy-3-salicyloylamino-2-cyclohexenone]
[1]; 10 μg/ml, 0, 24, 48 hours
  apoptosis (Annexin-V staining): apoptosis had been induced
[1]; 10 μg/ml, 72 hours
  apoptosis (Hoechst staining, nuclear fragmentation): images of nuclear fragmentation by DHMEQ treatment were observed
K562
  apoptosis (Hoechst staining): apoptosis was not observed
NF-κB [2]
  activation of NF-κB in HUVECs caused by TNF-α, IL-1β, and LPS: completely suppressed
NF-κB [3]
  transcription by NF-κB suppressed by (reporter assay): about 50%
NF-κB [4]
  NF-κB induction by antitumor agent: strongly suppressed
p65 subunit of NF-κB
  nuclear translocation of p65: inhibited
[5]
  adhesion of leukocytes and HL-60 cells to HUVECs: markedly suppressed
